Data: US11331299B2, “Medicinal use of serrulatane diterpenes” (The University of Sydney, priority 2016, dated 2022)
Read-outs that look alike come from different tables or passages of the source.

Key:
SMARCA2 (h) bromodomain = target: T1, SMARCA2 (h) bromodomain (Homo sapiens, UniProt P51531); assay: Epigenetic binding assay, Bromodomain; conditions: for inhibition at 10 µM: read-out: % Inhibition of Control Specific Binding
T1 construct: Bromodomain

[1] = target: MSK2(h) (substrate histone H3 full length) (Homo sapiens, UniProt O75676); assay: Epigenetic enzyme assay, Kinases; type: biochemical; conditions: read-out: % Inhibition of Control Values
CYP2B6 = target: T2, CYP2B6 (Homo sapiens, UniProt P20813); assay: Cytochrome P450 Inhibition (CYP panel); conditions: human, probe bupropion
T2 sequence (P20813 1-491): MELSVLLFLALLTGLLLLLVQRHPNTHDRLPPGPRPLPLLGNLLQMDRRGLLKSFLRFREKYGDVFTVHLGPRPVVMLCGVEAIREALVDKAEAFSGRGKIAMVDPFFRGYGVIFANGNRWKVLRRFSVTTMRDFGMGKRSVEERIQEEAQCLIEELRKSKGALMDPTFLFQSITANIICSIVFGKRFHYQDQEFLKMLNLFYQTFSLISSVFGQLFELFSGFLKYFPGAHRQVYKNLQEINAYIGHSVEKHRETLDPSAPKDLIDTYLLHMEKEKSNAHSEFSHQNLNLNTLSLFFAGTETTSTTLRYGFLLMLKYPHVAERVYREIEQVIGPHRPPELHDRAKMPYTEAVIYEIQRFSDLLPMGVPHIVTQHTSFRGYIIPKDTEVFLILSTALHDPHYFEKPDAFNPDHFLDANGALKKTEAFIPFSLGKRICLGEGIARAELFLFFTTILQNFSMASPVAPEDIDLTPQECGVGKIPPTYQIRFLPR

BRD2(2) (h) bromodomain = target: T3, BRD2(2) (h) bromodomain (Homo sapiens, UniProt P25440); assay: Epigenetic binding assay, Bromodomain; conditions: read-out: % Inhibition of Control Specific Binding
T3 construct: Bromodomain

FBXL10 (h) = target: T4, FBXL10 (h) (Homo sapiens, UniProt Q8NHM5); assay: Epigenetic enzyme assay, Demethylases (KDMs); type: biochemical; conditions: 10 μM; read-out: % Inhibition of Control Values
T4 sequence (Q8NHM5 1-1336): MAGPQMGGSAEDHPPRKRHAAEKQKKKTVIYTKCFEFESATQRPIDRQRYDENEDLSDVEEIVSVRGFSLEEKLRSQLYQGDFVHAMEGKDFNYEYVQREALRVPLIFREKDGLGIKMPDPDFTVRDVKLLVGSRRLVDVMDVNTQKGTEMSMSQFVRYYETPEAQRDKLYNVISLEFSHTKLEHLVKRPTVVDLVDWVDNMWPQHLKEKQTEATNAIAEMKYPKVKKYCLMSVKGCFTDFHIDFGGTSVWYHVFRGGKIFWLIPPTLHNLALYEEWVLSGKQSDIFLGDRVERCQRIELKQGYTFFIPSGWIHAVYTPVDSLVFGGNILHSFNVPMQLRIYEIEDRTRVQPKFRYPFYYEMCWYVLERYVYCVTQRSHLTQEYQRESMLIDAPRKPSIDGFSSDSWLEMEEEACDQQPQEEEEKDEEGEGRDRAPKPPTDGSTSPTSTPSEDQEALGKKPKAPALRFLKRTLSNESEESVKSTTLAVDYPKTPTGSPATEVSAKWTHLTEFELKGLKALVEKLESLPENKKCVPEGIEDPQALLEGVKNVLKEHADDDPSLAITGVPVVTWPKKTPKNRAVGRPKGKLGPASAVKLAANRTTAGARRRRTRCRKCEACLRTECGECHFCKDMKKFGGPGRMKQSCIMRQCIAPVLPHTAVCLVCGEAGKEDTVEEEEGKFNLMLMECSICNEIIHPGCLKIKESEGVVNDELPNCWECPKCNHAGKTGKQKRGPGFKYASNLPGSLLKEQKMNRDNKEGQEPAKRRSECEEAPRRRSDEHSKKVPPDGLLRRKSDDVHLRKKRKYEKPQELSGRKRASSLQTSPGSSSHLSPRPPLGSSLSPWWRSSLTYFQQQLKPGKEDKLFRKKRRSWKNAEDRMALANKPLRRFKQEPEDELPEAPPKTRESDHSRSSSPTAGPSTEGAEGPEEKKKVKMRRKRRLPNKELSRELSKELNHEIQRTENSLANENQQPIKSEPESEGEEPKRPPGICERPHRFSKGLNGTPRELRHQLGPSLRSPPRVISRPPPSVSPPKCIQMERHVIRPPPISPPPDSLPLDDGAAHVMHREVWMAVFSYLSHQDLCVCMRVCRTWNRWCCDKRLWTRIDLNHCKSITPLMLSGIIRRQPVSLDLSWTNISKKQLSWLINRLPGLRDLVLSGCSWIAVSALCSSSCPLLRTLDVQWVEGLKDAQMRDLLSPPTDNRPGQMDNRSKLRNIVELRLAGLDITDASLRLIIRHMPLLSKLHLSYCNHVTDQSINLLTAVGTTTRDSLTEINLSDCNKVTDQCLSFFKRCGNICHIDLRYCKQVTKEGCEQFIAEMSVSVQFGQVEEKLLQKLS

[2] = test system: A204 (soft tissue sarcoma); assay: OncoPanel cell proliferation assay (10-day); type: cell-based; conditions: Homo sapiens; for EC50: read-out: Cell Count EC50; for IC50: read-out: Cell Count IC50
Chemokine CXCR2 (IL-8RB) = target: T5, Chemokine CXCR2 (IL-8RB) (Homo sapiens, UniProt P25025); assay: Chemokine CXCR2 (IL-8RB) radio ligand binding; conditions: assay year 2015
T5 construct: expressed in transfected cells; host or cells: CHO-K1 cells
T5 sequence (P25025 1-360): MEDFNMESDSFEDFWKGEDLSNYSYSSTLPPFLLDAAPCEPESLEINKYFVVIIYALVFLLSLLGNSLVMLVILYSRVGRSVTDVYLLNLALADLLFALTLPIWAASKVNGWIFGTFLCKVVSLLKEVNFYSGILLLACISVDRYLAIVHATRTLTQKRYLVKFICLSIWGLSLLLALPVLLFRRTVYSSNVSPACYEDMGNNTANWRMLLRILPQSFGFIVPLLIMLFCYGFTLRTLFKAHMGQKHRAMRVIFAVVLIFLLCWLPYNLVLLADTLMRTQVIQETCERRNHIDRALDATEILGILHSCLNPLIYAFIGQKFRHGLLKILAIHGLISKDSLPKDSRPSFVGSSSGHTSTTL
Protocol: The in vitro pharmacological studies were conducted by Eurofins PanLab (Taiwan) using the parameters shown in Table 13 with respect to appropriate literature references.

PRMT8 (h) = PRMT8 (h) (Homo sapiens, UniProt Q9NR22); assay: Epigenetic enzyme assay, Methyltransferases (MTs); type: biochemical; conditions: read-out: % Inhibition of Control Values
HCT-8 = assay: OncoPanel cell proliferation assay (10-day); type: cell-based, human; conditions: for EC50 / GI50 / IC50: Homo sapiens, HCT-8, Colon; for EC50: read-out: Cell Count EC50; for GI50: read-out: Cell Count GI50; for IC50: read-out: Cell Count IC50
[3] = A204, Soft Tissue - Sarcoma, read-out: Cell Count GI50

Sequence of MSK2(h) (substrate histone H3 full length) (O75676 whole entry): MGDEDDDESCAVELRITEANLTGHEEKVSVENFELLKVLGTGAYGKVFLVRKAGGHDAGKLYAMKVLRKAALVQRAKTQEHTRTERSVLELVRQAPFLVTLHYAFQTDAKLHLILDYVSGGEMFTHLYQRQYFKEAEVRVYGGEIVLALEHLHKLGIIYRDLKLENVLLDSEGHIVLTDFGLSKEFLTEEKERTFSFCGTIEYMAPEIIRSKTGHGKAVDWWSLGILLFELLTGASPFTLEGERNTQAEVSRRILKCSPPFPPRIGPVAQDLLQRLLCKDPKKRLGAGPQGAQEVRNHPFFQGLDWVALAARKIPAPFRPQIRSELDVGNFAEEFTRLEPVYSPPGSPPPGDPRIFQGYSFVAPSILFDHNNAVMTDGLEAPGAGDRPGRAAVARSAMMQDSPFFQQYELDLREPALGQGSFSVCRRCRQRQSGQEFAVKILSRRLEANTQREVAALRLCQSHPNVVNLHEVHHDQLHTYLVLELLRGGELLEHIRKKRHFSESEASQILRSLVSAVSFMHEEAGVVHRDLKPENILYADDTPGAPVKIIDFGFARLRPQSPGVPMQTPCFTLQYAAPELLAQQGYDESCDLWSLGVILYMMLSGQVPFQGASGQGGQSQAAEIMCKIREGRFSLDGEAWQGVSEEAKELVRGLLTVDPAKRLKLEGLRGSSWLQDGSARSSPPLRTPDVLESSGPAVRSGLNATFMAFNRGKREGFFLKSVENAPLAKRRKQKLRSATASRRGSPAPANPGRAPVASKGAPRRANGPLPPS
Sequence of PRMT8 (h) (Q9NR22 whole entry): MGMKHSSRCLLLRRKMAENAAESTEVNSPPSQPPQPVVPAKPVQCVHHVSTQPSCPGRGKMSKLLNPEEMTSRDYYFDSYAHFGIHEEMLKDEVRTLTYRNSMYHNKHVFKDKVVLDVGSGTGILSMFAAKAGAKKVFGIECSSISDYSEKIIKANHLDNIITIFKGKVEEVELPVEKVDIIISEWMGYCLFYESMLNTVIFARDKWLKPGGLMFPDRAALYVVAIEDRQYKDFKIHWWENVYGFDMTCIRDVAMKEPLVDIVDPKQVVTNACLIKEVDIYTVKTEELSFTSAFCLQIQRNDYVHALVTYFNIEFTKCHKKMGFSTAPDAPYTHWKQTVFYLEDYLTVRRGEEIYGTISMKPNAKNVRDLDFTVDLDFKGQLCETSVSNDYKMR
T1 sequence (P51531 1378-1506 limits assumed): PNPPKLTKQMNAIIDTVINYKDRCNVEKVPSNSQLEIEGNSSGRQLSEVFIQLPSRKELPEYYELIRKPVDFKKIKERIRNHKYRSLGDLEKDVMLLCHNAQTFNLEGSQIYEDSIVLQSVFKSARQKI
T3 sequence (P25440 344-453 limits assumed): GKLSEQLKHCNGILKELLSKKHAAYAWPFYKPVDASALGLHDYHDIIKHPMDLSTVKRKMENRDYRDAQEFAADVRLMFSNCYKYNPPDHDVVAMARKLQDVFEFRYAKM

Structure (SMILES) | inhibition at 10 µM (SMARCA2 (h) bromodomain) [%] | inhibition at 10 µM [1] [%] | inhibition at 1 µM (CYP2B6; human liver microsomes) [%] | inhibition at 1 µM (CYP2B6; liver microsomes) [%] | inhibition at 10 µM (CYP2B6; liver microsomes) [%] | inhibition at 10 µM (BRD2(2) (h) bromodomain) [%] | inhibition at 10 µM (FBXL10 (h)) [%] | EC50 ([2]; A204, Soft Tissue - Sarcoma) [nM] | GI50 [2, 3] [nM] | IC50 ([2]; A204, Soft Tissue - Sarcoma) [nM] | % control response at 10 µM (Chemokine CXCR2 (IL-8RB)) [%] | inhibition at 10 µM (PRMT8 (h)) [%] | EC50 (HCT-8) [µM] | GI50 (HCT-8) [µM] | IC50 (HCT-8) [µM] | further results
CC(C)=CCC[C@H](CO)[C@@H]1CC[C@@H](C)c2c1cc(C)c(O)c2O [Compound 1, 7,8,18-trihydroxyserrulat-14-ene] | 83 | 9 | 13 to 16 | 13 | 55 | 58 | 37 | 520 | 520 | 540 | 12 | 5 | 1.23 | 1.23 | 1.23 | % Inhibition of Control Specific Binding (SMARCA2 (h) bromodomain; 10 μM): significant inhibitory activity; Relative cell count (%) Mean (HCT-8; HCT-8, 3.00E+00 microM): 1.9%; Relative cell count (%) Mean (HCT-8; HCT-8, 3.00E+01 microM): 0.0%; Relative cell count (%) Mean (HCT-8; HCT-8, 3.01E−01 microM): 94.9%; Relative cell count (%) Mean (HCT-8; HCT-8, 3.01E−02 microM): 91.8%; Relative cell count (%) Mean (HCT-8; HCT-8, 3.02E−03 microM): 104.1%; Relative cell count (%) Mean (HCT-8; HCT-8, 9.49E+00 microM): 0.0%; Relative cell count (%) Mean (HCT-8; HCT-8, 9.51E−01 microM): 72.6%; Relative cell count (%) Mean (HCT-8; HCT-8, 9.52E−02 microM): 100.8%; Relative cell count (%) Mean (HCT-8; HCT-8, 9.53E−03 microM): 91.0%; Relative cell count (%) Mean (HCT-8; HCT-8, 9.55E−04 microM): 102.6%
CC(C)=CCC[C@@H]1COc2c(C)cc(O)c3c2[C@H]1CC[C@H]3C [Compound 3, 5,18-epoxy-8-hydroxyserrulat-14-ene] | 18 | -1 |  |  |  | 18 | 22 |  |  |  | 1 | -26 |  |  |  | 
CC(C)=CCC[C@H](C)[C@@H]1CC[C@@H](C)c2c1cc(C)c(O)c2O [Compound 4, 7,8-dihydroxyserrulat-14-ene] |  |  | 13 to 16 | 16 | 49 |  |  | 720 | 680 | 720 |  |  | 12.9 | 12.9 | 12.9 | GI50 ([2]; A204, read-out: GI50): 684 nM
CC(C)=CCC[C@@H]1C(O)Oc2c(C)cc(O)c3c2[C@H]1CC[C@H]3C (stereo partly drawn) [Compound 2, 5,18-epoxyserrulat-14-en-8,18-diol] | 21 | 12 | 13 to 16 | 15 | 38 | 22 | 7 | 8460 | 8500 | 8540 | -7 | 24 | 6.27 | 6.24 | 6.27 | 
